Laboratory results from patent US10308631B2, “Selective anti-cancer compounds” (NATIONAL UNIVERSITY OF SINGAPORE, priority 2015, dated 2019).

Assays:
Aqueous solubility = format: physicochemical; conditions: compared with Compound 1
[1] = system: cleaved PARP and caspase-3 in oncogene-transformed human fibroblast BJ cells; assay: Immunoblot of cleaved PARP and cleaved caspase-3; format: cell-based; conditions: 2.5 and 5 μM, 48 h
Protocol: FIGS. 5B, C provide a representation of an immunoblot analysis to examine the PARP or caspase-3 cleavage (B) and a histogram showing Caspase-3/7 activities, plotted as fold induction compared to DMSO-treated cells (C). BJ normal and transformed cells were treated with Compound 1 (a131) for 48 h. Cells were harvested and total lysates were analysed by detecting cleaved PARP or caspase-3 or caspase-3/7 activities as markers for apoptotic induction. […] Student's t-test was performed to determine the statistical significance (**=p<0.001, ***=p<0.0001, n.s.=no significance).
Whether Compound 1 (a131)-induced cancer cell-lethality was mediated by apoptosis or non-apoptotic programmed cell death was determined. For this purpose, isogenic non-transformed and oncogene-transformed human fibroblast BJ cell lines were cultured in DMEM supplemented with 10% FBS. The cells were treated with Compound 1 (2.5 μM and 5 μM, DMSO). 48 h after treatment, total cell lysates were prepared for immunoblot analysis using antibodies against cleaved PARP and cleaved caspase-3, well-known markers for apoptosis. In addition, a fraction of total cell lysates was also subjected to Caspase-3/7 Glo (Promega) assay to measure the combined activity of caspase 3/7. This was determined using caspase-Glo 3/7 Assay Kit (Promega) and its activity was normalized to a number of viable cells as determined by MTT assay.

[2] = system: HeLa cells (mitotic spindles, β-tubulin/DAPI); assay: Immunofluorescence analysis of mitotic spindles and chromosomes; format: cell-based, human; conditions: 6 h, Compound 1 2.5 μM, CQ 15 or 25 μM
Protocol: HeLa cells, treated with Compound 1 (a131) at 2.5 μM (FIG. 3b), chloroquine (CQ) at 15 μM (FIG. 3c) or 25 μM (FIG. 3d), or DMSO (FIG. 3a) for 6 h, were fixed in methanol and subjected to immunofluorescence analysis using antibodies against β-tubulin to visualize proper formation of mitotic spindles. The condensed mitotic chromosomes were visualized by counterstaining with DAPI. Only Compound 1 (a131)-treated HeLa cells arrested in mitosis with misaligned chromosomes and disorganized spindles (FIG. 3b). The bars in FIGS. 3a-d represent 5 μm in length.
To confirm the inhibitory mitotic progression ability, HeLa cervical cancer cells as cultured above were treated with Compound 1 (2.5 μM, DMSO), CQ (15 or 25 μM, DMSO) or DMSO for 6 h. The treated cells were fixed in methanol and subjected to immunofluorescence analysis using antibodies against β-tubulin (Abcam, Cat#ab52623) to visualize proper formation of mitotic spindles. The condensed mitotic chromosomes were visualized by counterstaining with DAPI.

[3] = system: non-transformed normal BJ cells; assay: Reversibility of cell cycle arrest after wash-out (cell counting); format: cell-based, human; conditions: 5 μM for 2, 3, 6 or 11 days, then wash-out
Source text: Non-transformed normal BJ cells were synchronized in G1 phase of the cell cycle by culturing in serum-starved conditions (0.1% FBS) for 2 days. Subsequently, cells were synchronously released in fresh media with 10% FBS and further treated with Compound 1 (a131) for 2, 3, 6 or 11 days. After treatment for the required amount of time, Compound 1 (a131) was removed by washing cells twice with fresh media, and culturing of the washed cells was continued in fresh media for up to 11 days. Cells were harvested and total numbers of cells, counted using automated Sceptor cell counter, were plotted with standard deviation (triplicates).
As shown in Biology Examples 5 and 7, Compound 1 and its derivatives, which inhibit both lysosome function and mitosis, induce cell death only in transformed BJ cells, while inducing cell cycle arrest in isogenic non-transformed BJ cells. However, it was not fully clear if the cell cycle arrest was permanent or reversible. Therefore, to evaluate whether the effect was permanent or reversible, non-transformed normal BJ cells were synchronized in the G1 phase of the cell cycle by culturing them in DMEM media with 0.1% FBS for 2 days. […] At various time-points, the adherent cells were harvested with trypsin (Invitrogen) and the total number of cells was counted using automated Sceptor cell counter (Millipore).

[4] = system: oncogene-transformed BJ cells; assay: Time-lapsed live cell analysis of mitotic progression (GFP-Histone H2B); format: cell-based, human; conditions: 2.5 μM, monitored every 10 min
Protocol: (§1) A: is a histogram showing isogenic non-transformed and oncogene-transformed BJ cells stably expressing GFP-tagged Histone H2B as a marker for chromosome segregation, treated with Compound 1 (a131) at 2.5 μM final concentration. Mitotic progression of these cells was monitored every 10 min. More than 100 cells per condition were quantified and classified into 3 groups: no, mild and severe mitotic defects with prolonged mitotic arrest, chromosome mis-segregation and failure in cytokinesis. […] The bars represent 5 μm in length. C: is a histogram showing quantification of defects in spindle formation and chromosome alignments (n>100 cells per condition).
(§2) Isogenic non-transformed and oncogene-transformed BJ cells stably expressing GFP-tagged Histone H2B as a marker for chromosome segregation were treated with Compound 1 at 2.5 μM final concentration. Mitotic progression of these cells was monitored every 10 min and images were acquired using a Super Resolution Microscope (Nikon) equipped with an iXon EM+ 885 EMCCD camera (Andor) mounted on a Nikon Eclipse Ti-E inverted microscope with a CFI Apo objective and a Stage Top Incubation with Digital CO2 mixer (Tokai). The images were processed with the NIS-Elements AR software. […]

[5] = system: non-transformed normal BJ cells; assay: as above; format: cell-based, human; conditions: 2.5 μM, monitored every 10 min
Protocol: as §1, §2

HeLa cells (LC3 puncta) = assay: Immunofluorescence analysis of LC3 puncta; format: cell-based, human; conditions: 2.5 μM, 6 h
Protocol: HeLa cells, treated with either Compound 1 (a131) at 2.5 μM or DMSO for 6 h, were fixed in ice-cold methanol and subjected to immunofluorescence analysis using antibodies against LC3 and counterstained with diamidino-2-phenylindole (DAPI) to visualize the nucleus. The Merge boxes show both LC3 and DAPI staining. The bars represent 5 μm in length.
To confirm the results of the immunoblot analysis and the lysosome-mediated autophagy activity, HeLa cervical cancer cells as cultured above were treated with Compound 1 (2.5 μM, DMSO) or DMSO as a control for 6 h. The treated cells were fixed in ice-cold methanol and subjected to immunofluorescence analysis using antibodies against LC3 and counterstained with diamidino-2-phenylindole (DAPI) to visualize the nucleus.

aqueous solubility (Aqueous solubility)	SMILES	levels of cleaved PARP and caspase-3 [1]	mitotic arrest, chromosome alignment and mitotic spindles [2]	recovery of proliferation after removal of compound [3]	mitotic defects [4]	mitotic defects [5]	LC3 puncta formation (HeLa cells (LC3 puncta))
improved aqueous solubility	CN1CCN(CC(=O)n2cc(/C(C#N)=C/c3cccc4cnccc34)c3ccccc32)CC1 [Compound 16, (Z)-3-(isoquinolin-5-yl)-2-(1-(2-(4-methylpiperazin-1-yl)acetyl)-1H-indol-3-yl)acrylonitrile]	–	–	–	–	–	–
–	N#C/C(=C\c1cccc2cnccc12)c1c[nH]c2ccccc12 [Compound 1, (Z)-2-(1H-indol-3-yl)-3-(isoquinolin-5-yl)acrylonitrile]	markedly increased the levels of both cleaved PARP and caspase-3	arrested in mitosis with massively misaligned chromosomes and disorganized mitotic spindles	removal of Compound 1 from the media is sufficient to enable these cells to recover from cell cycle arrest	severe mitotic defects with prolonged mitotic arrest, chromosome mis-segregations and failure in cytokinesis	only induced a short period of mitotic arrest with mild mitotic defects	increased LC3 puncta formation
